# doi:10.1101/2024.08.19.608619, “Discovery of potent SARS-CoV-2 nsp3 macrodomain inhibitors uncovers lack of translation to cellular antiviral response” (bioRxiv, 2024)
# Read-outs that look alike come from different tables or passages of the source.
# Key:
# Assay in all cases: biochemical
# Parameters in all cases: In vitro kinase panel profiling, per cent remaining kinase activity at 10 uM
# CDK2/cyclinA(h) = CDK2/cyclinA(h) (Homo sapiens, UniProt P24941); details: atp_concentration=45, read-out: % of control remaining
# Excerpt: (§1) We derisk potential for off-target activity by profiling the compound in a CEREP panel, a standard secondary pharmacology assessment, as well as a kinase panel to derisk a potential hinge-binding motif in our leads, and a PARP panel to derisk activity against human […]. Reassuringly, the compounds are selective, with the only off-targets being moderate human CHRM2 and KOR receptors activity associated with ASAP-0011198.
# CK2α2(h) = target: T1, CK2α2(h) (Homo sapiens, UniProt P19784); details: atp_concentration=10, read-out: % of control remaining
# T1 construct: gene CSNK2A2
# T1 sequence (P19784 whole entry): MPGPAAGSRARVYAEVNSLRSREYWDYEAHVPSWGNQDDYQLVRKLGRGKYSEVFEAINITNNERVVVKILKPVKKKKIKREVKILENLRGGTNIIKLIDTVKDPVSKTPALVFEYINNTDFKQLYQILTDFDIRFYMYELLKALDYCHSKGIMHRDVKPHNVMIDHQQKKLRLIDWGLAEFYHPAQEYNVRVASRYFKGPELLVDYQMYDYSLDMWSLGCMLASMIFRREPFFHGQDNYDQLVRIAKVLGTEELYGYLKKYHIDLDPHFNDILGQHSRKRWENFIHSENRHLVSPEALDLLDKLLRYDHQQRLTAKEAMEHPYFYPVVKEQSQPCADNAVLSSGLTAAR
# Excerpt: as §1
# EphA5(h) = EphA5(h) (Homo sapiens, UniProt P54756); details: atp_concentration=10, read-out: % of control remaining
# Chain of EphA5(h) (P54756 whole entry): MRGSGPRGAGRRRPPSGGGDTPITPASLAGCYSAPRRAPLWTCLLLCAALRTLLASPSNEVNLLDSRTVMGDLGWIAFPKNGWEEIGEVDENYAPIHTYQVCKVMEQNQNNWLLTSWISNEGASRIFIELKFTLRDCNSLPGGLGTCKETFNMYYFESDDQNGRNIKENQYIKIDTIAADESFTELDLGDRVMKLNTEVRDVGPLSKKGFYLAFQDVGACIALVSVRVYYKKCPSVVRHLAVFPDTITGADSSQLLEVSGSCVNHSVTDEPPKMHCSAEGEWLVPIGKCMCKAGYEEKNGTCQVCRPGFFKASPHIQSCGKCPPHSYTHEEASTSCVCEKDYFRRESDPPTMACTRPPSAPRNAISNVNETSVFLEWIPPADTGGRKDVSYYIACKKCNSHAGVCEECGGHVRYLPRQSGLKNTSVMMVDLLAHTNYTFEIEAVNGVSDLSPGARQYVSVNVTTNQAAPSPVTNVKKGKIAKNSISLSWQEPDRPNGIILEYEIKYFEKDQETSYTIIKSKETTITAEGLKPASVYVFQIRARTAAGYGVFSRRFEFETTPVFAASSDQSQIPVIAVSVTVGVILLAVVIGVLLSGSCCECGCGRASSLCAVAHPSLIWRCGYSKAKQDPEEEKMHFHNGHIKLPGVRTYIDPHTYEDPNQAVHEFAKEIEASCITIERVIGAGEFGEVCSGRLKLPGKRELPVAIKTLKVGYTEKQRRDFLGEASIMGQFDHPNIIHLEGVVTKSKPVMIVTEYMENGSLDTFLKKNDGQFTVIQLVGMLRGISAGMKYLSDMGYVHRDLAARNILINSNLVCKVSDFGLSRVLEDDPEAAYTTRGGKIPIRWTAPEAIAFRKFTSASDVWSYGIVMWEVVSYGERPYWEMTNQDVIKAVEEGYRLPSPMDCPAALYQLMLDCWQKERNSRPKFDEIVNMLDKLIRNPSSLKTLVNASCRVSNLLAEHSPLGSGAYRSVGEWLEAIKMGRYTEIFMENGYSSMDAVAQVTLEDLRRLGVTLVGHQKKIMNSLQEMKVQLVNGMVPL
# Excerpt: as §1
# EphB4(h) = target: T2, EphB4(h) (Homo sapiens, UniProt P54760); details: atp_concentration=10, read-out: % of control remaining
# T2 sequence (P54760 1-987): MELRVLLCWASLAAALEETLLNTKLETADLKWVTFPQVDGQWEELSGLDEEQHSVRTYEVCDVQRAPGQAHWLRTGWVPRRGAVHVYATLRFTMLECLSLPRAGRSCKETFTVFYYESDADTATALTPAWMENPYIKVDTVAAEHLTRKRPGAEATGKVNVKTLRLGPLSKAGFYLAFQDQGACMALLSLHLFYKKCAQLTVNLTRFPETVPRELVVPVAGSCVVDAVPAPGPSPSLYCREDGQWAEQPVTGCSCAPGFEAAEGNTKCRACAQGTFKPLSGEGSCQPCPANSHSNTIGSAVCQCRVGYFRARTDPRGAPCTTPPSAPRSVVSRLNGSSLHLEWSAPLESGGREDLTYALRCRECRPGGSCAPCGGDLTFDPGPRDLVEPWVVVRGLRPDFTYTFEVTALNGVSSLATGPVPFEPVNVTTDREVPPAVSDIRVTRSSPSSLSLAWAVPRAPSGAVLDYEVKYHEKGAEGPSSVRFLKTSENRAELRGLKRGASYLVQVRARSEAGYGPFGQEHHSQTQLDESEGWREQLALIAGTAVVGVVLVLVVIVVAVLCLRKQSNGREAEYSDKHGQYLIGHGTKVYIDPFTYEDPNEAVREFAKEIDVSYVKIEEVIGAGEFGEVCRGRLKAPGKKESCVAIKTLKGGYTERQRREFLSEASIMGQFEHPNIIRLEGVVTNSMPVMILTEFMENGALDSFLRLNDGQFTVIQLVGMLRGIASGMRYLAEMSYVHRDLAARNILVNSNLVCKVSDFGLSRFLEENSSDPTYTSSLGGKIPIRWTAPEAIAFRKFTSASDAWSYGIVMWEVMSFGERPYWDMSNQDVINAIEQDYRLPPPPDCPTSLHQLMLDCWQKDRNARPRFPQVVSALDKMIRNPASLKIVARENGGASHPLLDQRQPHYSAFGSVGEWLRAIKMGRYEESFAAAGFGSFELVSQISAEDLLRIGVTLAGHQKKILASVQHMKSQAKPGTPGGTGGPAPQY
# Excerpt: as §1
# LOK(h) = target: T3, LOK(h) (Homo sapiens, UniProt O94804); details: atp_concentration=120, read-out: % of control remaining
# T3 construct: gene STK10
# T3 sequence (O94804 whole entry): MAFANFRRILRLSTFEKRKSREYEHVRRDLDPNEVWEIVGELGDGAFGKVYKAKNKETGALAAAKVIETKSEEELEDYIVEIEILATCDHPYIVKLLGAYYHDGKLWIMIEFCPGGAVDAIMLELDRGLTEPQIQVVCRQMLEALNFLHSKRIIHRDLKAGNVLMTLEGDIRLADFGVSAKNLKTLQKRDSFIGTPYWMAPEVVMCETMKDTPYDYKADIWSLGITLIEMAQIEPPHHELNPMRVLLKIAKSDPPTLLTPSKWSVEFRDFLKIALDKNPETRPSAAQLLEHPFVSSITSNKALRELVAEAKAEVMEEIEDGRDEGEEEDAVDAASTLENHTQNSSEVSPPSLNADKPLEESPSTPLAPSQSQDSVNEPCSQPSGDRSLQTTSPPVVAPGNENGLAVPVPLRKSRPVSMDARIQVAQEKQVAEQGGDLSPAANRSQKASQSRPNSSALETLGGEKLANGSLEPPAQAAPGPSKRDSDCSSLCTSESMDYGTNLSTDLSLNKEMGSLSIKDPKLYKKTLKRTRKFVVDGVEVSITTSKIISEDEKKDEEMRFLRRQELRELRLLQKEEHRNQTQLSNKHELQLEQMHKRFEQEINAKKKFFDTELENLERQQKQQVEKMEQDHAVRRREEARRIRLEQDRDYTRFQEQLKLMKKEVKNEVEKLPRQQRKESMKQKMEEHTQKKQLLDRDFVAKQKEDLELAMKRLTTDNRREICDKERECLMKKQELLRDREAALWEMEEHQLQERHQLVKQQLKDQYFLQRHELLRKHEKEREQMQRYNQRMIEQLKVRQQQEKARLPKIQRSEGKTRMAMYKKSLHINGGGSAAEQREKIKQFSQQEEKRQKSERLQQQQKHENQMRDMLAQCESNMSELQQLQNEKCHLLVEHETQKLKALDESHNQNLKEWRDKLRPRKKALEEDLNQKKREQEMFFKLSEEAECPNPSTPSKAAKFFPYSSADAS
# Excerpt: as §1
# NEK2(h) = target: T4, NEK2(h) (Homo sapiens, UniProt P51955); details: atp_concentration=120, read-out: % of control remaining
# T4 sequence (P51955 1-445): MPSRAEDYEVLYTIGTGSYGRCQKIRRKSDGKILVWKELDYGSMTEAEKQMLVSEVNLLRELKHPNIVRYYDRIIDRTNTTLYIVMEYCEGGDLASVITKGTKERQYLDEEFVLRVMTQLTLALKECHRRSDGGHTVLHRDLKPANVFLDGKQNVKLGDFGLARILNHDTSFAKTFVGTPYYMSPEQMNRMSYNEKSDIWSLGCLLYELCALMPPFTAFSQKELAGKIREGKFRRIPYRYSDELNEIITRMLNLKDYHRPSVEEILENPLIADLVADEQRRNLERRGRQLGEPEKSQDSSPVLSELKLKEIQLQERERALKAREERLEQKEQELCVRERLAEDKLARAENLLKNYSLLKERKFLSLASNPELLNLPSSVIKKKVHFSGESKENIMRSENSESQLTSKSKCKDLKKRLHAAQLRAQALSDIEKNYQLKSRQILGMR
# Excerpt: as §1
# PKG1α(h) = target: T5, PKG1α(h) (Homo sapiens, UniProt Q13976); details: atp_concentration=90, read-out: % of control remaining
# T5 construct: gene PRKG1; isoform alpha
# T5 sequence (Q13976 1-671): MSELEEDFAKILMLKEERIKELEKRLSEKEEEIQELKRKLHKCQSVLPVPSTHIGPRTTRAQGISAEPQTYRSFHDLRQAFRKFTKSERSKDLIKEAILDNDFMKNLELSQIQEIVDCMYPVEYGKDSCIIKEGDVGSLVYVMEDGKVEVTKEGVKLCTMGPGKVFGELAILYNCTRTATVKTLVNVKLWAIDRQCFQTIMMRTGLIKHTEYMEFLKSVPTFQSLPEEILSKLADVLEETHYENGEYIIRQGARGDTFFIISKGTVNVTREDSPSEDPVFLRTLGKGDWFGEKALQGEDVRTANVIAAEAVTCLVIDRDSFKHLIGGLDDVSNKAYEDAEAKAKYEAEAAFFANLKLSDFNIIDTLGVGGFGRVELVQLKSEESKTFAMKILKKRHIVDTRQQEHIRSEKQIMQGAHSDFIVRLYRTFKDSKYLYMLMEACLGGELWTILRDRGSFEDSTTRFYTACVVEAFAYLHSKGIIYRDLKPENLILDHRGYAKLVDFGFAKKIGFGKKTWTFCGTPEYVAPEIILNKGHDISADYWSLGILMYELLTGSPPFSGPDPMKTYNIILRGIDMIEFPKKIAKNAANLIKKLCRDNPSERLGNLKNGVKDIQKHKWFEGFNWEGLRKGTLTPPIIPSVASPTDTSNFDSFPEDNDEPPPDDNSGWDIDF
# Excerpt: as §1
compound,measurement,setting,value
CC(C)C(Nc1ncnc2[nH]ccc12)c1ccc2c(c1)S(=O)(=O)CCC2 (stereo not drawn) [ASAP-0008327],remaining activity at 10 µM,CDK2/cyclinA(h); batch_name=ASAP-0008327-001,96%
same,remaining activity at 10 µM,CK2α2(h); batch_name=ASAP-0008327-001,90%
same,remaining activity at 10 µM,EphA5(h); batch_name=ASAP-0008327-001,110%
same,remaining activity at 10 µM,EphB4(h); batch_name=ASAP-0008327-001,91%
same,remaining activity at 10 µM,LOK(h); batch_name=ASAP-0008327-001,104%
same,remaining activity at 10 µM,NEK2(h); batch_name=ASAP-0008327-001,118%
same,remaining activity at 10 µM,PKG1α(h); batch_name=ASAP-0008327-001,88%
COc1ccc([C@@H](Cc2nnn[nH]2)NC(=O)c2ncnc3[nH]ccc23)cc1 [ASAP-0008340],remaining activity at 10 µM,CDK2/cyclinA(h); batch_name=ASAP-0008340-001,97%
same,remaining activity at 10 µM,CK2α2(h); batch_name=ASAP-0008340-001,88%
same,remaining activity at 10 µM,EphA5(h); batch_name=ASAP-0008340-001,106%
same,remaining activity at 10 µM,EphB4(h); batch_name=ASAP-0008340-001,88%
same,remaining activity at 10 µM,LOK(h); batch_name=ASAP-0008340-001,96%
same,remaining activity at 10 µM,NEK2(h); batch_name=ASAP-0008340-001,100%
same,remaining activity at 10 µM,PKG1α(h); batch_name=ASAP-0008340-001,95%
CC(C)[C@@H](Nc1ncnc2[nH]c(-c3cnn(C)c3C#N)cc12)c1ccc2c(n1)OCCO2 [ASAP-0008418],remaining activity at 10 µM,CDK2/cyclinA(h); batch_name=ASAP-0008418-001,95%
same,remaining activity at 10 µM,CK2α2(h); batch_name=ASAP-0008418-001,86%
same,remaining activity at 10 µM,EphA5(h); batch_name=ASAP-0008418-001,91%
same,remaining activity at 10 µM,EphB4(h); batch_name=ASAP-0008418-001,75%
same,remaining activity at 10 µM,LOK(h); batch_name=ASAP-0008418-001,47%
same,remaining activity at 10 µM,NEK2(h); batch_name=ASAP-0008418-001,94%
same,remaining activity at 10 µM,PKG1α(h); batch_name=ASAP-0008418-001,100%
CC(C)[C@H](Nc1ncnc2[nH]ccc12)c1ccc2c(c1)S(=O)(=O)CCC2 [ASAP-0008674],remaining activity at 10 µM,CDK2/cyclinA(h); batch_name=ASAP-0008674-002,102%
same,remaining activity at 10 µM,CK2α2(h); batch_name=ASAP-0008674-002,87%
same,remaining activity at 10 µM,EphA5(h); batch_name=ASAP-0008674-002,102%
same,remaining activity at 10 µM,EphB4(h); batch_name=ASAP-0008674-002,86%
same,remaining activity at 10 µM,LOK(h); batch_name=ASAP-0008674-002,102%
same,remaining activity at 10 µM,NEK2(h); batch_name=ASAP-0008674-002,109%
same,remaining activity at 10 µM,PKG1α(h); batch_name=ASAP-0008674-002,123%
CC(C)[C@H](Nc1ncnc2[nH]c(-c3cnn(C)c3C#N)cc12)c1ccc2c(n1)OCCO2 [ASAP-0010715],remaining activity at 10 µM,CDK2/cyclinA(h); batch_name=ASAP-0010715-002,104%
same,remaining activity at 10 µM,CK2α2(h); batch_name=ASAP-0010715-002,95%
same,remaining activity at 10 µM,EphA5(h); batch_name=ASAP-0010715-002,102%
same,remaining activity at 10 µM,EphB4(h); batch_name=ASAP-0010715-002,89%
same,remaining activity at 10 µM,LOK(h); batch_name=ASAP-0010715-002,45%
same,remaining activity at 10 µM,NEK2(h); batch_name=ASAP-0010715-002,105%
same,remaining activity at 10 µM,PKG1α(h); batch_name=ASAP-0010715-002,130%
CC(C)[C@@H](Nc1ncnc2[nH]c(-c3cnn(C)c3C#N)cc12)c1ccc2c(n1)OCCO2 [ASAP-0010716],remaining activity at 10 µM,CDK2/cyclinA(h); batch_name=ASAP-0010716-002,104%
same,remaining activity at 10 µM,CK2α2(h); batch_name=ASAP-0010716-002,93%
same,remaining activity at 10 µM,EphA5(h); batch_name=ASAP-0010716-002,90%
same,remaining activity at 10 µM,EphB4(h); batch_name=ASAP-0010716-002,91%
same,remaining activity at 10 µM,LOK(h); batch_name=ASAP-0010716-002,106%
same,remaining activity at 10 µM,NEK2(h); batch_name=ASAP-0010716-002,76%
same,remaining activity at 10 µM,PKG1α(h); batch_name=ASAP-0010716-002,123%
CNCc1cc(-c2cc3c(N[C@@H](c4ccc5c(c4)S(=O)(=O)CCC5)C(C)C)ncnc3[nH]2)co1 [ASAP-0011176],remaining activity at 10 µM,CDK2/cyclinA(h); batch_name=ASAP-0011176-002,98%
same,remaining activity at 10 µM,CK2α2(h); batch_name=ASAP-0011176-002,90%
same,remaining activity at 10 µM,EphA5(h); batch_name=ASAP-0011176-002,78%
same,remaining activity at 10 µM,EphB4(h); batch_name=ASAP-0011176-002,92%
same,remaining activity at 10 µM,LOK(h); batch_name=ASAP-0011176-002,92%
same,remaining activity at 10 µM,NEK2(h); batch_name=ASAP-0011176-002,105%
same,remaining activity at 10 µM,PKG1α(h); batch_name=ASAP-0011176-002,115%
CC(C)C(Nc1ncnc2[nH]c(C(=O)NC3CCN(C)C3)cc12)c1ccc2c(c1)S(=O)(=O)CCC2 (stereo not drawn) [ASAP-0011198],remaining activity at 10 µM,CDK2/cyclinA(h); batch_name=ASAP-0011198-002,117%
same,remaining activity at 10 µM,CK2α2(h); batch_name=ASAP-0011198-002,98%
same,remaining activity at 10 µM,EphA5(h); batch_name=ASAP-0011198-002,100%
same,remaining activity at 10 µM,EphB4(h); batch_name=ASAP-0011198-002,86%
same,remaining activity at 10 µM,LOK(h); batch_name=ASAP-0011198-002,99%
same,remaining activity at 10 µM,NEK2(h); batch_name=ASAP-0011198-002,118%
same,remaining activity at 10 µM,PKG1α(h); batch_name=ASAP-0011198-002,116%
Cn1ncc(-c2cc3c(N[C@@H](c4ccc5c(n4)OCCO5)C(C)(C)C)ncnc3[nH]2)c1C#N [ASAP-0011221],remaining activity at 10 µM,CDK2/cyclinA(h); batch_name=ASAP-0011221-002,114%
same,remaining activity at 10 µM,CK2α2(h); batch_name=ASAP-0011221-002,92%
same,remaining activity at 10 µM,EphA5(h); batch_name=ASAP-0011221-002,102%
same,remaining activity at 10 µM,EphB4(h); batch_name=ASAP-0011221-002,115%
same,remaining activity at 10 µM,LOK(h); batch_name=ASAP-0011221-002,122%
same,remaining activity at 10 µM,NEK2(h); batch_name=ASAP-0011221-002,104%
same,remaining activity at 10 µM,PKG1α(h); batch_name=ASAP-0011221-002,127%
